From patent US10285982B2, “3-(1H-pyrrolo[2,3-B]pyridin-2-yl)-1H-pyrazolo[3,4-C]pyridines and therapeutic uses thereof” (Samumed, LLC, priority 2015, dated 2019)

Experiments:
Format in all cases: cell-based
SW480 colon cancer cells = assay: Cell viability assay (CellTiter-Blue); settings: Homo sapiens, 96 h, four days; for inhibition at 10 µM: given where EC50 >10 μM, read-out: percent inhibition at 10 μM
Procedure: Representative compounds were screened using the following assay procedure to assess the effect on cell viability as described below.
Each compound was dissolved in DMSO as a 10 mM stock and used to prepare compound source plates. Serial dilution (1:3, 8-point dose-response curves from 10 μM to 0.0045 μM) and compound transfer was performed using the ECHO 550 (Labcyte, Sunnyvale, Calif.) into 96-well clear bottom, black-walled plates (Corning-Costar).
Approximately 2×10^3 SW480 colon cancer cells were seeded into each well and allowed to incubate in the presence or absence of compound for four days at 37° C./5% CO2. Eight replicates of DMSO-treated cells served as controls and cells treated with compound were performed in duplicate.
After incubation, 20 μL of CellTiter-Blue (Promega) was added to each well allowed to incubate for approximately 3 hours. This reagent was a buffered solution which contains resazurin, metabolically active cells were able to reduce rezarurin (blue) into resorufin (pink) which was highly fluorescent. This measured fluorescence was used as a readout for cell viability.
After incubation, the plates were read at Ex 560 nm Em 590 nm (Cytation 3, BioTek). Dose-response curves were generated and EC50 concentration values were calculated using non-linear regression curve fit in the GraphPad Prism (San Diego, Calif.) or Dotmatics' Studies Software (Bishops Stortford, UK). For EC50 of >10 μM, the percent inhibition at 10 μM is provided.

[1] = system: Wnt activity (Sp5-Luc reporter, SW480 colon carcinoma cells); assay: Wnt activity screening assay, Sp5-Luc reporter gene in SW480 cells; settings: Homo sapiens; for inhibition at 10 µM: given where EC50 >10 μM, read-out: percent inhibition at 10 μM; for EC50: overnight incubation
Description: The screening assay for Wnt activity is described as follows. Reporter cell lines can be generated by stably transducing cancer cell lines (e.g., colon cancer) or primary cells (e.g., IEC-6 intestinal cells) with a lentiviral construct that includes a Wnt-responsive promoter driving expression of the firefly luciferase gene.
SW480 colon carcinoma cells were transduced with a lentiviral vector expressing luciferase with a human Sp5 promoter consisting of a sequence of eight TCF/LEF binding sites. SW480 cells stably expressing the Sp5-Luc reporter gene and a hygromycin resistance gene were selected by treatment with 150 μg/mL of hygromycin for 7 days. These stably transduced SW480 cells were expanded in cell culture and used for all further screening activities. Each compound was dissolved in DMSO as a 10 mM stock and used to prepare compound source plates. Serial dilution (1:3, 10-point dose-response curves starting from 10 μM) and compound transfer was performed using the ECHO 550 (Labcyte, Sunnyvale, Calif.) into 384-well white solid bottom assay plates (Greiner Bio-One) with appropriate DMSO backfill for a final DMSO concentration of 0.1%. For Sp5-Luc reporter gene assays, the cells were plated at 4,000 cells/well in 384-well plates with medium containing 1% fetal bovine serum and incubated overnight at 37° C. and 5% CO2. Following incubation, 20 μl of BrightGlo luminescence reagent (Promega) was added to each well of the 384-well assay plates. The plates were placed on an orbital shaker for 2 min and then luminescence was quantified using the Envision (Perkin Elmer) plate reader. Readings were normalized to DMSO only treated cells, and normalized activities were utilized for EC50 calculations using the dose-response log (inhibitor) vs. response-variable slope (four parameters) nonlinear regression feature available in GraphPad Prism 5.0 (or Dotmatics). For EC50 of >10 μM, the percent inhibition at 10 μM is provided.

[2] = system: primary human fibroblasts derived from IPF patients (LL29 cells) treated with TGF-β1; assay: Inhibition of fibrotic process, αSMA staining in TGF-β1 treated LL29 fibroblasts; settings: Fibroblast; for EC50: 96 h, % αSMA positive LL29 cells, TGF-β1 20 ng/mL, 4 days; for inhibition at 10 µM: given where EC50 >10 μM, αSMA, LL29 cells, TGF-β1, read-out: percent inhibition at 10 μM
Description: Representative compounds were screened using primary human fibroblasts (derived from IPF patients) treated with TGF-β1 to determine their ability to inhibit the fibrotic process.
Primary human fibroblasts derived from IPF patients (LL29 cells) [^1Xiaoqiu Liu, et. al., “Fibrotic Lung Fibroblasts Show Blunted Inhibition by cAMP Due to Deficient cAMP Response Element-Binding Protein Phosphorylation”, Journal of Pharmacology and Experimental Therapeutics (2005), 315(2), 678-687; ^2Watts, K. L., et. al., “RhoA signaling modulates cyclin D1 expression in human lung fibroblasts; implications for idiopathic pulmonary fibrosis”, Respiratory Research (2006), 7(1), 88] were obtained from American Type Culture Collection (ATCC) and expanded in F12 medium supplemented with 15% Fetal Bovine Serum and Penicillin/Streptomycin.
Each compound was dissolved in DMSO as a 10 mM stock and used to prepare compound source plates. Serial dilution (1:2, 11-point dose-response curves from 10 μM to 1.87 nM) and compound transfer was performed using the ECHO 550 (Labcyte, Sunnyvale, Calif.) into 384-well clear bottom assay plates (Greiner Bio-One) with appropriate DMSO backfill for a final DMSO concentration of 0.1%. LL29 cells are plated at 1,500 cells/well in 80 μL/well F12 medium supplemented with 1% Fetal Bovine Serum. One hour after addition of the cells, TGF-β1 (Peprotech; 20 ng/mL) was added to the plates to induce fibrosis (ref. 1 and 2 above). Wells treated with TGF-β1 and containing DMSO were used as controls. Cells were incubated at 37° C. and 5% CO2 for 4 days. Following incubation for 4 days, SYTOX green nucleic acid stain (Life Technologies [Thermo Fisher Scientific]) was added to the wells at a final concentration of 1 μM and incubated at room temperature for 30 min. Cells were then fixed using 4% formaldehyde (Electron Microscopy Sciences), washed 3 times with PBS followed by blocking and permeabilization using 3% Bovine Serum Albumin (BSA; Sigma) and 0.3% Triton X-100 (Sigma) in PBS. Cells were then stained with antibody specific to α-smooth muscle actin (αSMA; Abcam) (ref. 1 and 2 above) in 3% Bovine Serum Albumin (BSA; Sigma) and 0.3% Triton X-100 (Sigma) in PBS, and incubated overnight at 4° C. Cells were then washed 3 times with PBS, followed by incubation with Alexa Flor-647 conjugated secondary antibody (Life Technologies [Thermo Fisher Scientific]) and DAPI at room temperature for 1 hour. Cells were then washed 3 times with PBS and plates were sealed for imaging. αSMA staining was imaged by excitation at 630 nm and emission at 665 nm and quantified using the Compartmental Analysis program on the CellInsight CX5 (Thermo Scientific). Dead or apoptotic cells were excluded from analysis based on positive SYTOX green staining. % of total cells positive for αSMA were counted in each well and normalized to the average of 11 wells treated with TGF-β1 on the same plate using Dotmatics' Studies Software. The normalized averages (fold change over untreated) of 3 replicate wells for each compound concentration were used to create dose-responses curves and EC50 values were calculated using non-linear regression curve fit in the Dotmatics' Studies Software. For EC50 of >10 μM, the percent inhibition at 10 μM is provided.

## CN(C)CCNc1cc(F)cc(-c2ccnc3[nH]c(-c4n[nH]c5cnc(-c6cncnc6)cc45)cc23)c1 [Compound 475, N^1-(3-Fluoro-5-(2-(5-(pyrimidin-5-yl)-1H-pyrazolo[3,4-c]pyridin-3-yl)-1H-pyrrolo[2,3-b]pyridin-4-yl)phenyl)-N^2,N^2-dimethylethane-1,2-diamine]
SW480 colon cancer cells
  inhibition at 10 µM: 17%
  EC50: > 10 µM
[1]
  inhibition at 10 µM: 10.9%
  EC50: > 10000 nM
[2]
  EC50: > 10 µM
  inhibition at 10 µM: 27.5%

## Cc1ccncc1-c1cc2c(-c3cc4c(-c5ccncc5)ccnc4[nH]3)n[nH]c2cn1 [Compound 117, 5-(4-Methylpyridin-3-yl)-3-(4-(pyridin-4-yl)-1H-pyrrolo[2,3-b]pyridin-2-yl)-1H-pyrazolo[3,4-c]pyridine]
SW480 colon cancer cells
  EC50: 8.43 µM
[1]
  inhibition at 10 µM: 42.4%
  EC50: > 10000 nM
[2]
  EC50: 4.43 µM

## c1cncc(-c2ccnc3[nH]c(-c4n[nH]c5cnc(-c6cncc(CN7CCCC7)c6)cc45)cc23)c1 [Compound 98, 3-(4-(Pyridin-3-yl)-1H-pyrrolo[2,3-b]pyridin-2-yl)-5-(5-(pyrrolidin-1-ylmethyl)pyridin-3-yl)-1H-pyrazolo[3,4-c]pyridine]
SW480 colon cancer cells
  inhibition at 10 µM: 11.5%
  EC50: > 10 µM
[1]
  inhibition at 10 µM: 25.2%
  EC50: > 10000 nM
[2]
  EC50: 8.15 µM

## CC(C)Nc1cncc(-c2cc3c(-c4cc5c(-c6cccnc6)ccnc5[nH]4)n[nH]c3cn2)c1 [Compound 96, N-Isopropyl-5-(3-(4-(pyridin-3-yl)-1H-pyrrolo[2,3-b]pyridin-2-yl)-1H-pyrazolo[3,4-c]pyridin-5-yl)pyridin-3-amine]
SW480 colon cancer cells
  inhibition at 10 µM: 20.5%
  EC50: > 10 µM
[1]
  inhibition at 10 µM: 30.3%
  EC50: > 10000 nM
[2]
  EC50: > 10 µM
  inhibition at 10 µM: 0%

## c1ccc(-c2cc3c(-c4cc5c(-c6ccncc6)ccnc5[nH]4)n[nH]c3cn2)nc1 [Compound 140, 5-(Pyridin-2-yl)-3-(4-(pyridin-4-yl)-1H-pyrrolo[2,3-b]pyridin-2-yl)-1H-pyrazolo[3,4-c]pyridine]
SW480 colon cancer cells
  inhibition at 10 µM: 17.5%
  EC50: > 10 µM
[1]
  inhibition at 10 µM: 24.3%
  EC50: > 10000 nM
[2]
  EC50: > 10 µM
  inhibition at 10 µM: 10.5%

## O=C(Nc1cncc(-c2cc3c(-c4cc5c(-c6cccc(F)c6)ccnc5[nH]4)n[nH]c3cn2)c1)C1CC1 [Compound 20, N-(5-(3-(4-(3-Fluorophenyl)-1H-pyrrolo[2,3-b]pyridin-2-yl)-1H-pyrazolo [3,4-c]pyridin-5-yl)pyridin-3-yl)cyclopropanecarboxamide]
SW480 colon cancer cells
  EC50: 0.159 µM
[1]
  EC50: 97 nM
[2]
  EC50: 0.019 µM

## O=C(Nc1cncc(-c2cc3c(-c4cc5c(-c6cccc(F)c6)ccnc5[nH]4)n[nH]c3cn2)c1)c1ccccc1 [Compound 11, N-(5-(3-(4-(3-Fluorophenyl)-1H-pyrrolo[2,3-b]pyridin-2-yl)-1H-pyrazolo [3,4-c]pyridin-5-yl)pyridin-3-yl)benzamide]
SW480 colon cancer cells
  inhibition at 10 µM: 46.8%
  EC50: > 10 µM
[1]
  inhibition at 10 µM: 8.2%
  EC50: > 10000 nM
[2]
  EC50: 4.21 µM

## Fc1cccc(-c2ccnc3[nH]c(-c4n[nH]c5cnc(-c6cncnc6)cc45)cc23)c1 [Compound 27, 3-(4-(3-Fluorophenyl)-1H-pyrrolo[2,3-b]pyridin-2-yl)-5-(pyrimidin-5-yl)-1H-pyrazolo[3,4-c]pyridine]
SW480 colon cancer cells
  inhibition at 10 µM: 41.2%
  EC50: > 10 µM
[1]
  EC50: 507 nM
[2]
  EC50: 2.82 µM

## c1cc(N2CCCCC2)c2cc(-c3n[nH]c4cnc(C5CCNCC5)cc34)[nH]c2n1 [Compound 601, 3-(4-(Piperidin-1-yl)-1H-pyrrolo[2,3-b]pyridin-2-yl)-5-(piperidin-4-yl)-1H-pyrazolo[3,4-c]pyridine]
SW480 colon cancer cells
  inhibition at 10 µM: 12%
  EC50: > 10 µM
[1]
  inhibition at 10 µM: 0%
  EC50: > 10000 nM
[2]
  EC50: > 10 µM
  inhibition at 10 µM: 13%

## O=C(Nc1cncc(-c2cc3c(-c4cc5c(N6CCCCC6)ccnc5[nH]4)n[nH]c3cn2)c1)C1CC1 [Compound 188, N-(5-(3-(4-(Piperidin-1-yl)-1H-pyrrolo[2,3-b]pyridin-2-yl)-1H-pyrazolo[3,4-c]pyridin-5-yl)pyridin-3-yl)cyclopropanecarboxamide]
SW480 colon cancer cells
  EC50: 1.28 µM
[1]
  EC50: 1230 nM
[2]
  EC50: 1.78 µM

## CCCCC(=O)Nc1cncc(-c2cc3c(-c4cc5c(-c6ccccc6F)ccnc5[nH]4)n[nH]c3cn2)c1 [Compound 75, N-(5-(3-(4-(2-Fluorophenyl)-1H-pyrrolo[2,3-b]pyridin-2-yl)-1H-pyrazolo [3,4-c]pyridin-5-yl)pyridin-3-yl)pentanamide]
SW480 colon cancer cells
  EC50: 0.242 µM
[1]
  EC50: 542 nM
[2]
  EC50: 0.076 µM

## Fc1cccc(-c2ccnc3[nH]c(-c4n[nH]c5cnc(-c6cncc(CN7CCCC7)c6)cc45)cc23)c1 [Compound 14, 3-(4-(3-Fluorophenyl)-1H-pyrrolo[2,3-b]pyridin-2-yl)-5-(5-(pyrrolidin-1-ylmethyl)pyridin-3-yl)-1H-pyrazolo[3,4-c]pyridine]
SW480 colon cancer cells
  inhibition at 10 µM: 13.3%
  EC50: > 10 µM
[1]
  inhibition at 10 µM: 22.8%
  EC50: > 10000 nM
[2]
  EC50: 3.53 µM

## Fc1cccc(-c2ccnc3[nH]c(-c4n[nH]c5cnc(-c6cccnc6)cc45)cc23)c1 [Compound 4, 3-(4-(3-Fluorophenyl)-1H-pyrrolo[2,3-b]pyridin-2-yl)-5-(pyridin-3-yl)-1H-pyrazolo[3,4-c]pyridine]
SW480 colon cancer cells
  EC50: 2.73 µM
[1]
  EC50: 1210 nM
[2]
  EC50: 1.03 µM
